Measurements: ChEMBL document CHEMBL5608163, “Structure modification of anoplin for fighting resistant bacteria” (Eur J Med Chem, 2024)
Converted amounts (≈) assume the structure as drawn. Bridge positions count the residues as written; N and C are the ends. Square brackets hold non-standard residues; d marks the D form. Peptide text beside a SMILES is read from it. I, II: the chains in the order shown. * marks the point of attachment. ξ: configuration not given here. Lauroyl = CCCCCCCCCCCC(=O)*; Decanoyl = CCCCCCCCCC(=O)*; Octanoyl = CCCCCCCC(=O)*; Hexanoyl = CCCCCC(=O)*; ξK = NCCCCC(N)C(=O)O; Butyryl = CCCC(=O)*

Legend:
[1] = system: Staphylococcus aureus; test: Antibacterial activity against Staphylococcus aureus ATCC 25923 assessed as reduction in bacterial cell growth incubated for 16 to 24 hrs by CLSI-protocol based Mueller-Hinton Broth micro-dilution method; assay type: functional; settings: time 16-24 hrs
[2] = system: Pseudomonas aeruginosa; test: Antibacterial activity against Pseudomonas aeruginosa ATCC 27853 assessed as reduction in bacterial cell growth incubated for 16 to 24 hrs by CLSI-protocol based Mueller-Hinton Broth micro-dilution method; assay type: functional; settings: time 16-24 hrs
[3] = system: Escherichia coli; test: Antibacterial activity against Escherichia coli ATCC 25922 assessed as reduction in bacterial cell growth incubated for 16 to 24 hrs by CLSI-protocol based Mueller-Hinton Broth micro-dilution method; assay type: functional; settings: time 16-24 hrs
[4] = system: Klebsiella pneumoniae; test: Antibacterial activity against Klebsiella pneumoniae ATCC 700603 assessed as reduction in bacterial cell growth incubated for 16 to 24 hrs by CLSI-protocol based Mueller-Hinton Broth micro-dilution method; assay type: functional; settings: time 16-24 hrs
[5] = system: Erythrocyte; test: Hemolytic activity in human erythrocyte incubated for 70 mins by absorbance based assay; assay type: toxicity, cell-based; settings: 1.167 h
[6] = system: Bacillus subtilis; test: Antibacterial activity against Bacillus subtilis ATCC 23857 assessed as reduction in bacterial cell growth incubated for 16 to 24 hrs by CLSI-protocol based Mueller-Hinton Broth micro-dilution method; assay type: functional; settings: time 16-24 hrs

Compound	MIC [1] [µM]	MIC [2] [µM]	MIC [3] [µM]	MIC [4] [µM]	HC10 [5] [µM]	MIC [6] [µM]
I: Octanoyl-GLLKRIKTLL[ξK][ξK]-NH2 / II: Octanoyl-GLLKRIKTLL[ξK] / III: Octanoyl-GLLKRIKTLL / IV: Octanoyl-GLLKRIKTLL (amide I:11-IV:C, I:12-II:C, II:11-III:C)	256	256	256	256	103.4	256
CCCCCC(=O)NCC(=O)N[C@@H](CC(C)C)C(=O)N[C@@H](CC(C)C)C(=O)N[C@@H](CCCCN)C(=O)N[C@@H](CCCNC(=N)N)C(=O)N[C@H](C(=O)N[C@@H](CCCCN)C(=O)N[C@H](C(=O)N[C@@H](CC(C)C)C(=O)N[C@@H](CC(C)C)C(N)=O)[C@@H](C)O)[C@@H](C)CC (Hexanoyl-GLLKRIKTLL-NH2)	64 (≈ 80.1 µg/mL)	16 (≈ 20 µg/mL)	128 (≈ 160 µg/mL)	128 (≈ 160 µg/mL)	> 256	16 (≈ 20 µg/mL)
CCCC(=O)NCC(=O)N[C@@H](CC(C)C)C(=O)N[C@@H](CC(C)C)C(=O)N[C@@H](CCCCN)C(=O)N[C@@H](CCCNC(=N)N)C(=O)N[C@H](C(=O)N[C@@H](CCCCN)C(=O)N[C@H](C(=O)N[C@@H](CC(C)C)C(=O)N[C@@H](CC(C)C)C(N)=O)[C@@H](C)O)[C@@H](C)CC (Butyryl-GLLKRIKTLL-NH2)	256 (≈ 313 µg/mL)	64 (≈ 78.3 µg/mL)	256 (≈ 313 µg/mL)	256 (≈ 313 µg/mL)	> 256	256 (≈ 313 µg/mL)
CCCCCCCCCCCC(=O)NCC(=O)N[C@@H](CC(C)C)C(=O)N[C@@H](CC(C)C)C(=O)N[C@@H](CCCCN)C(=O)N[C@@H](CCCNC(=N)N)C(=O)N[C@H](C(=O)N[C@@H](CCCCN)C(=O)N[C@H](C(=O)N[C@@H](CC(C)C)C(=O)N[C@@H](CC(C)C)C(=O)NCCCCC(NC(=O)[C@H](CC(C)C)NC(=O)[C@H](CC(C)C)NC(=O)[C@@H](NC(=O)[C@H](CCCCN)NC(=O)[C@@H](NC(=O)[C@H](CCCNC(=N)N)NC(=O)[C@H](CCCCN)NC(=O)[C@H](CC(C)C)NC(=O)[C@H](CC(C)C)NC(=O)CNC(=O)CCCCCCCCCCC)[C@@H](C)CC)[C@@H](C)O)C(N)=O)[C@@H](C)O)[C@@H](C)CC (some centres undefined) (I: Lauroyl-GLLKRIKTLL[ξK]-NH2 / II: Lauroyl-GLLKRIKTLL; amide I:11-II:C)	256 (≈ 712 µg/mL)	256 (≈ 712 µg/mL)	128 (≈ 356 µg/mL)	256 (≈ 712 µg/mL)	15.16	256 (≈ 712 µg/mL)
I: Hexanoyl-GLLKRIKTLL[ξK][ξK]-NH2 / II: Hexanoyl-GLLKRIKTLL[ξK] / III: Hexanoyl-GLLKRIKTLL / IV: Hexanoyl-GLLKRIKTLL (amide I:11-IV:C, I:12-II:C, II:11-III:C)	32	32	32	32	10.91	32
CCCC(=O)NCC(=O)N[C@@H](CC(C)C)C(=O)N[C@@H](CC(C)C)C(=O)N[C@@H](CCCCN)C(=O)N[C@@H](CCCNC(=N)N)C(=O)N[C@H](C(=O)N[C@@H](CCCCN)C(=O)N[C@H](C(=O)N[C@@H](CC(C)C)C(=O)N[C@@H](CC(C)C)C(=O)NCCCC[C@H](NC(=O)[C@H](CCCCNC(=O)[C@H](CC(C)C)NC(=O)[C@H](CC(C)C)NC(=O)[C@@H](NC(=O)[C@H](CCCCN)NC(=O)[C@@H](NC(=O)[C@H](CCCNC(=N)N)NC(=O)[C@H](CCCCN)NC(=O)[C@H](CC(C)C)NC(=O)[C@H](CC(C)C)NC(=O)CNC(=O)CCC)[C@@H](C)CC)[C@@H](C)O)NC(=O)[C@H](CC(C)C)NC(=O)[C@H](CC(C)C)NC(=O)[C@@H](NC(=O)[C@H](CCCCN)NC(=O)[C@@H](NC(=O)[C@H](CCCNC(=N)N)NC(=O)[C@H](CCCCN)NC(=O)[C@H](CC(C)C)NC(=O)[C@H](CC(C)C)NC(=O)CNC(=O)CCC)[C@@H](C)CC)[C@@H](C)O)C(N)=O)[C@@H](C)O)[C@@H](C)CC (I: Butyryl-GLLKRIKTLLKK-NH2 / II: Butyryl-GLLKRIKTLL / III: Butyryl-GLLKRIKTLL; amide I:11-III:C, I:12-II:C)	–	–	–	–	3.18	–
CCCCCC(=O)NCC(=O)N[C@@H](CC(C)C)C(=O)N[C@@H](CC(C)C)C(=O)N[C@@H](CCCCN)C(=O)N[C@@H](CCCNC(=N)N)C(=O)N[C@H](C(=O)N[C@@H](CCCCN)C(=O)N[C@H](C(=O)N[C@@H](CC(C)C)C(=O)N[C@@H](CC(C)C)C(=O)NCCCC[C@H](NC(=O)[C@H](CCCCNC(=O)[C@H](CC(C)C)NC(=O)[C@H](CC(C)C)NC(=O)[C@@H](NC(=O)[C@H](CCCCN)NC(=O)[C@@H](NC(=O)[C@H](CCCNC(=N)N)NC(=O)[C@H](CCCCN)NC(=O)[C@H](CC(C)C)NC(=O)[C@H](CC(C)C)NC(=O)CNC(=O)CCCCC)[C@@H](C)CC)[C@@H](C)O)NC(=O)[C@H](CC(C)C)NC(=O)[C@H](CC(C)C)NC(=O)[C@@H](NC(=O)[C@H](CCCCN)NC(=O)[C@@H](NC(=O)[C@H](CCCNC(=N)N)NC(=O)[C@H](CCCCN)NC(=O)[C@H](CC(C)C)NC(=O)[C@H](CC(C)C)NC(=O)CNC(=O)CCCCC)[C@@H](C)CC)[C@@H](C)O)C(N)=O)[C@@H](C)O)[C@@H](C)CC (I: Hexanoyl-GLLKRIKTLLKK-NH2 / II: Hexanoyl-GLLKRIKTLL / III: Hexanoyl-GLLKRIKTLL; amide I:11-III:C, I:12-II:C)	–	–	–	–	0.71	–
CCCCCCCC(=O)NCC(=O)N[C@@H](CC(C)C)C(=O)N[C@@H](CC(C)C)C(=O)N[C@@H](CCCCN)C(=O)N[C@@H](CCCNC(=N)N)C(=O)N[C@H](C(=O)N[C@@H](CCCCN)C(=O)N[C@H](C(=O)N[C@@H](CC(C)C)C(=O)N[C@@H](CC(C)C)C(=O)NCCCC[C@H](NC(=O)[C@H](CCCCNC(=O)[C@H](CC(C)C)NC(=O)[C@H](CC(C)C)NC(=O)[C@@H](NC(=O)[C@H](CCCCN)NC(=O)[C@@H](NC(=O)[C@H](CCCNC(=N)N)NC(=O)[C@H](CCCCN)NC(=O)[C@H](CC(C)C)NC(=O)[C@H](CC(C)C)NC(=O)CNC(=O)CCCCCCC)[C@@H](C)CC)[C@@H](C)O)NC(=O)[C@H](CC(C)C)NC(=O)[C@H](CC(C)C)NC(=O)[C@@H](NC(=O)[C@H](CCCCN)NC(=O)[C@@H](NC(=O)[C@H](CCCNC(=N)N)NC(=O)[C@H](CCCCN)NC(=O)[C@H](CC(C)C)NC(=O)[C@H](CC(C)C)NC(=O)CNC(=O)CCCCCCC)[C@@H](C)CC)[C@@H](C)O)C(N)=O)[C@@H](C)O)[C@@H](C)CC (I: Octanoyl-GLLKRIKTLLKK-NH2 / II: Octanoyl-GLLKRIKTLL / III: Octanoyl-GLLKRIKTLL; amide I:11-III:C, I:12-II:C)	–	–	–	–	59.73	–
CCCCCCCCCC(=O)NCC(=O)N[C@@H](CC(C)C)C(=O)N[C@@H](CC(C)C)C(=O)N[C@@H](CCCCN)C(=O)N[C@@H](CCCNC(=N)N)C(=O)N[C@H](C(=O)N[C@@H](CCCCN)C(=O)N[C@H](C(=O)N[C@@H](CC(C)C)C(=O)N[C@@H](CC(C)C)C(=O)NCCCC[C@H](NC(=O)[C@H](CCCCNC(=O)[C@H](CC(C)C)NC(=O)[C@H](CC(C)C)NC(=O)[C@@H](NC(=O)[C@H](CCCCN)NC(=O)[C@@H](NC(=O)[C@H](CCCNC(=N)N)NC(=O)[C@H](CCCCN)NC(=O)[C@H](CC(C)C)NC(=O)[C@H](CC(C)C)NC(=O)CNC(=O)CCCCCCCCC)[C@@H](C)CC)[C@@H](C)O)NC(=O)[C@H](CC(C)C)NC(=O)[C@H](CC(C)C)NC(=O)[C@@H](NC(=O)[C@H](CCCCN)NC(=O)[C@@H](NC(=O)[C@H](CCCNC(=N)N)NC(=O)[C@H](CCCCN)NC(=O)[C@H](CC(C)C)NC(=O)[C@H](CC(C)C)NC(=O)CNC(=O)CCCCCCCCC)[C@@H](C)CC)[C@@H](C)O)C(N)=O)[C@@H](C)O)[C@@H](C)CC (I: Decanoyl-GLLKRIKTLLKK-NH2 / II: Decanoyl-GLLKRIKTLL / III: Decanoyl-GLLKRIKTLL; amide I:11-III:C, I:12-II:C)	–	–	–	–	146.63	–
